Consider two compounds from US10369133B2, “Immunosuppressive compounds and therapeutics” (UNIVERSITY OF TENNESSEE RESEARCH FOUNDATION, priority 2013, dated 2019).

Data set [1] has as its system PHA-stimulated T cells. The experiment in a line: T cell activation markers in medium of PHA-stimulated T cells by ELISA. The format is cell-based, human. The conditions noted are these: 5 μM; for level of IFNγ / level of TNFα: medium of T cells following PHA stimulation; for level of IL-2 / level of IL-2 receptors: medium of T cells, 48 h following PHA stimulation. The method, then: Briefly, human peripheral blood mononuclear cells PBMCs were isolated from human buffy coat using Ficoll-Paque. T cells ([…]) were isolated from PBMCs using dynabeads for human CD3+ T cells and subjected to PHA (1 μg/mL) stimulation for 24 h alone or with JP-3-110 (5 μM) and MPA (5 μM) for additional 48 h. The PHA-stimulated proliferation of T cells is characterized by a quick drop in the early stage (24 h) and a following fast-proliferative stage. FIGS. 3B and 3C show charts depicting the levels of IL-2, IL-2 receptor, TNFα and IFNγ in the media of T cells at 48 h following PHA stimulation. IL-2 and IL-2 receptor were transient expressed markers for early stage T cell activation while TNFα and IFNγ were stably expressed markers for later-stage T cell activation. Results are presented as the mean±S.D., n=6.
PBMCs were isolated using Ficoll Paque. T cells were isolated from PBMCs using Dynabeads for. T cells were stimulated with PHA (1 μg/ml) for 24 h alone or in the presence of TNP (5 μM) or JP-3-110 (5 μM) for additional 4 days. The total number of PBMCs was measured using T4 Automatic Cell Counter (Nexcelom, Lawrence, Mass.). The extent of T cell activation was determined by measuring the level of IL-2, IL-2sRa, TNFα and IFN-γ in the medium using ELISA at indicated time.
Mixed lymphocytes reaction was used to determine the immunosuppressive effects of MPA and JP-3-110. T cells were purified using dynabeads from peripheral blood mononuclear cells (PBMCs), which were initially isolated from human buffy coat (FIG. 8A). […] The levels of IL-2, IL-2sRa, TNFα and IFNγ were detected by ELISA to study the effects of JP-3-110 and MPA on T cell activation. IL-2 and IL-2R typically peaked at the first 48 h after PHA stimulation as markers for the early stage T cell activation, while TNFα and IFNγ were constitutively expressed by PHA-stimulated T cells as later-stage markers for T cell activation. […] However, the results might be due to an overlap between the immunosuppressive pathway and the anti-inflammatory pathway of JP-3-110 and MPA.

Data set [2] relates to INS-1E cells. The experiment in a line: Caspase 3 activity in INS-1E cells (Caspase-Glo 3). The format is cell-based. The conditions noted are these: 20 μM (each), 2 days. As for the experimental part:
(§1) Results are presented as the mean±S.D., n=3. […] Apoptotic cells were stained in dark (arrows). […] Islet was collected and dispersed with 0.25% Trypsin/EDTA into single cell suspension. P3 indicated the percentage of apoptotic cells. All experiments were performed in triplicates. Results are presented as the mean±SD. *p<0.05 as determined by an unpaired Student's t-test, n=6.
A cytokine cocktail (5 ng/ml TNFα and 5 ng/ml IL-1β) was used to mimic the in vivo challenge to the INS-1E cells and human islets by the inflammatory cytokines. Caspase-Glo 3 assay kits were used to analyze caspase 3 as per the manufacturer's protocol (Promega, Madison, Wis.). This assay kit provides a proilluminescent caspase substrate, DEVD, that, when cleaved by caspases, will release luciferin to quantitatively determine caspase concentration. […] The contents were then transferred into culture tubes, and luminescence was determined using a luminometer (Berthold, Germany).
We then determined the conjugation with TNP can reduce the pro-apoptotic effect of MPA. […] We first measured the caspase 3 activities of insulin-producing INS-1E cells under the stimulation of MPA alone, or MPA with free TNP, or JP-3-110 (MPA conjugated with TNP). […]

Data set [3] deals with INS-1E cells. The experiment in a line: TUNEL assay of INS-1E cells. The class given is cell-based. To be noted: 20 μM. As for the experimental part:
as §1
(§2) The apoptosis of INS-1E cells was analyzed using terminal deoxynucleotidyl transferase dUTP nick end labeling (TUNEL). Briefly, following JP-3-110 treatment for 48 h and cytokine cocktail treatment for additional 48 h, INS-1E cells were characterized by the DeadEnd™ Colorimetric TUNEL system (Promega, Madison, Wis., USA), in which fragmented DNA from apoptotic cells was labeled with biotinylated nucleotide and detected using hydrogen peroxide and diaminobenzidine. For human islets, following treatment with JP-3-110 and cytokines, human islets were digested with 0.25% trypsin/EDTA into a single-cell suspension, stained with the Annexin V-FITC Apoptosis Detection Kit (Abcam, Cambridge, Mass.) and analyzed with flow cytometry. Annexin V binds to phosphatidylserine on the cell surface, which is a feature found in apoptotic cells. Fluorescent intensity was analyzed using CellQuest software (BD Bioscience, Franklin Lakes, N.J.). […]
(§3) We then determined the conjugation with TNP can reduce the pro-apoptotic effect of MPA. […]

The subject of data set [4] is human islets. The experiment in a line: Annexin V-FITC flow cytometry of apoptotic cells in human islets. The class given is cell-based. To be noted: 20 μM, 5 days coculture. The method, then:
as §1, §2, §3

Data set [5] relates to human islets. The experiment in a line: Dynamic insulin release (perifusion) assay of human islets. The class given is cell-based. The conditions noted are these: co-incubation with drug; for insulin release pattern under stimulatory glucose: basal then stimulatory glucose. The method, then:
Briefly, 50 islets from each group were perifused with basal glucose for 60 min and stimulatory glucose for 30 min and finally with basal glucose until insulin release reversed to the basal level. Samples were collected through an automatic fraction collector and analyzed for insulin content by ELISA.
The insulin secretion from human islets was quantified using a dynamic islet perifusion assay as described before. See Wu et al., 2011, The Journal of Gene Medicine, 13:658-669. Briefly, 50 islets from each group were handpicked and loaded onto a Swinnex 13 chamber (Millipore, Burlington, Mass., USA) and perifused with Krebs-Ringer bicarbonate HEPES buffer of the following composition (in mM): 129 NaCl, 5 NaHCO3, 4.8 KCl, 1.2 KH2PO4, 1.2 MgSO4, 2.5 CaCl2, and 10 HEPES at pH 7.4. The flow rate was maintained at 1 ml/min with a peristaltic pump (Themo Fisher, Waltham, Mass.) and the temperature was maintained at 37° C. with a solution heater (Warner Instruments, Hamden, Conn.). Islets were first perifused with basal glucose for 60 min, stimulatory glucose for 20 min and basal glucose until insulin release reversed to the basal level. The perifusion speed was set to 2 mL/minute and samples were collected once per minute through an automatic fraction collector (Waters, Milford, Mass.) and analyzed for insulin content by ELISA.
A dynamic insulin release assay was used to evaluate the function of human islets. Briefly, […] handpicked human islets were sequentially perfused with basal and stimulatory glucose. The samples were collected using an auto-sampler and subjected to ELISA.

Each structure is given as a SMILES string.

With `CCCCNC(=O)[C@]1(O)C[C@@H](O)[C@@H](O)[C@H](OC(=O)CC/C(C)=C/Cc2c(OC)c(C)c3c(c2OC(C)=O)C(=O)OC3)C1` [JP-3-110, (1R,2R,3R,5S)-5-(butylcarbamoyl)-2,3,5-trihydroxycyclohexyl (E)-6-(4-acetoxy-6-methoxy-7-methyl-3-oxo-1,3-dihydroisobenzofuran-5-yl)-4-methylhex-4-enoate], in data set [1], the “level of IFNγ” value is given as “moderate inhibition”, the “level of TNFα” value was “moderate inhibition”, the “level of IL-2” value is “did not have any effect” and the “level of IL-2 receptors” value was “did not have any effect”. Moreover, the “caspase 3 activity” value in data set [2] is given as “effectively reversed the elevation of caspase 3 activity”. Besides, the “apoptotic cell death (TUNEL)” value in data set [3] was “effectively reversed”. Besides, the “apoptotic cells in human islets (annexin V)” value in data set [4] is “significantly reduced the percentage of apoptotic cells”. The “insulin release pattern under stimulatory glucose” value in data set [5] is “clear biphasic insulin release”.
Regarding `COc1c(C)c2c(c(O)c1C/C=C(\C)CCC(=O)O)C(=O)OC2` [MPA, mycophenolic acid, reference compound], in data set [1], the “level of IFNγ” value was “moderate inhibition”, the “level of TNFα” value is “moderate inhibition”, the “level of IL-2” value is reported as “did not have any effect” and the “level of IL-2 receptors” value was “did not have any effect”. The “caspase 3 activity” value in data set [2] is listed as “elevation of caspase 3 activity”. The “apoptotic cell death (TUNEL)” value in data set [3] is recorded as “apoptotic cell death”. Further, the “apoptotic cells in human islets (annexin V)” value in data set [4] is given as “induced substantial apoptotic cell death”. For the same compound, in data set [5], the “total insulin release to stimulatory glucose” value is given as “significantly reduction” and the “insulin release pattern under stimulatory glucose” value is on record as “impaired the insulin release from both phases”.
